Data published in publication PMC9975351 (Frontiers in Pharmacology, 2023).
Where two headings read alike, the source gives them in different places.

What was measured:
CYP3A4/3A5 = test: Metabolic stability in Silensome CYP3A4 (CYP3A4/3A5 contribution); format: in vitro ADME, human; conditions: human
Method: (§1) Metabolic stability of GRL 0617 and formation of M1 and M3 were evaluated using Silensome control, Silensome CYP2D6 and Silensome CYP3A4 incubated with 1 or 10 µM GRL 0617 in the presence of NADPH. Other metabolites were detected less than 1% of parent. […] CYP2D6 played an exclusive role in the formation of M2, but the reactions were not saturated in the concentration range used in this study and thus, the calculated Kcat, and Km were out of the experiment condition.
(§2) In addition, the contribution of specific isoform using Silensomes were evaluated, and calculated parameters were shown in Supplemental Figure S4 and Table 4. […] The contribution of specific CYP 3A4 or CYP2D6 was calculated to be 79.6% or 21.8%, respectively, using equation as equation below. Calculated % CYP isoform contribution = CLintcontrol−ClintINH ⁄ CLintcontrol ([Bohnert et al., 2016]).
(§3) CYP3A4/5 metabolizes various chemicals composed of large, lipophilic molecules with diverse structures, and >50% of all prescribed drugs undergo CYP3A4 metabolism ([Zanger and Schwab, 2013]). CYP3A4-related drug interaction studies are critical for the prediction of drug–drug interactions in the clinic ([Prueksaritanont et al., 2013]). […] Thus, Silensome 3A4 represented contribution of both CYP3A4 and CYP3A5, compared with control Silensome. CYP3A5 expression in the liver differs between Africans/African Americans and Caucasians. […] CYP2D6 is a highly polymorphic gene involved in drug metabolism ([Ingelman-Sundberg et al., 2007]). […] Indeed, CYP2D6 metabolized the naphthalene side ring through hydroxylation, which is not linked to M1–M3 dehydration.
(§4) incubated in Silensome control, Silensome CYP2D6, and Silensome CYP3A4 with NADPH for 0, 10,
(§5) 15, 30, 45, 60, or 120 min. The remaining percentages of GRL 0617 are expressed as mean ± SD (n=3).
(§6) (1 picture or pasted object on this page, not shown here)

Silensome CYP3A4/3A5 = test: as above; format: in vitro ADME, human; conditions: (CLint control − CLint INH)/CLint control
Method: as §1, §2, §3, §4, §5, §6

[1] = Metabolic stability and metabolite formation in pooled human liver microsomes with NADPH and/or UDPGA; format: in vitro ADME; conditions: for Concentration remaining, % of the initial concentration: 1 µM, HLMs; for Hepatic clearance CLh / CLint scaled at 1 µM: in vitro-in vivo extrapolation, well-stirred model; for half-life at 1 µM / microsomal CLint at 1 µM / CLint scaled at 1 µM: human, microsomes; for half-life at 1 µM: pH 7.4, 1 µM compound, read-out: Half-life; for microsomal CLint at 1 µM: read-out: Intrinsic clearance (in vitro) Clint; for CLint scaled at 1 µM: read-out: Intrinsic clearance (in vivo) CLint
Method: Microsomal incubation was conducted in triplicate using 0.1 M potassium phosphate buffer (PPB, pH 7.4) in eight-well tube strips in an 8 × 12 rack (1.2 mL; VWR, Emeryville, CA, United States). […] The mixture was pre-incubated at 37°C with shaking at approximately 100 rpm for 5 min. UGT glucuronidation was performed with HLMs (1 mg/mL) and alamethicin (25 μg/mg microsomal protein) in a 100-mM PPB (pH 7.4) solution on ice for 15 min. […] CYP, UGT, and combined reactions were initiated by addition of the NADPH regenerating system, UDPGA (1 mM), and both, respectively. […] The incubation mixtures were then centrifuged at 2,000 × g and 4°C for 20 min, and the supernatants were analyzed by LC-QTOF HRMS.
The incubation mixtures were pre-incubated at 37°C in a shaking water bath at approximately 100 rpm for 5 min. Reactions were initiated by the addition of an NADPH-regenerating system. The reaction was terminated, centrifuged then analyzed using the same method described above.
In the microsomal stability analysis, degradation half-life (t½) values were calculated using the following equation: t½=0.693/k where k is the first-order degradation rate constant, estimated by one-phase exponential-decay non-linear regression of the degradation time-course data using Graph Pad Prism 8.0 (Graph Pad Software Inc., San Diego, CA, United States). In vitro metabolic stability parameters, microsomal intrinsic clearance (CLint,mic), apparent intrinsic clearance (CL′int), and hepatic clearance (CLh), were calculated according to the well-stirred model approach ([Pang and Rowland, 1977]; [Baranczewski et al., 2006]). The apparent kinetic parameters of GRL0617 metabolism were determined by fitting a one-enzyme Michaelis-Menten equation. […] All data are presented as mean ± SD. Data were compared between groups using the unpaired Student’s t-test. The significance level was set at p < 0.05, unless indicated otherwise.

Cc1ccc(N)cc1C(=O)N[C@H](C)c1cccc2ccccc12 [GRL0617, 5-amino-2-methyl-N-[(1R)-1-(1-naphthalenyl)ethyl]benzamide]
half-life at 1 µM (CYP3A4/3A5): 85.1 min
microsomal CLint at 1 µM (CYP3A4/3A5; Silensome CYP3A4/3A5 with NADPH, read-out: Intrinsic clearance (in vitro) Clint): 8.14 µL/min/mg
Contribution of CYP3A4 (CYP3A4/3A5) to metabolism (Silensome CYP3A4/3A5): 79.6%
Half-life ([1]; 1 µM compound, 1 mg/mL pooled HLMs with NADPH (phase I)): 26.4 min
Concentration remaining, % of the initial concentration ([1]; 60 min incubation with NADPH): 44.5% ± 5.3%
Concentration remaining, % of the initial concentration ([1]; 60 min incubation with NADPH + UDPGA): 47.2% ± 7.5%
Concentration remaining, % of the initial concentration ([1]; 60 min incubation with UDPGA): 93.4% ± 6.1%
Direct UGT glucuronidation ([1]; HLM with UDPGA only): No direct UGT glucuronidation was detected
Hepatic clearance CLh ([1]; NADPH + UDPGA): 11.1 mL/min/kg
Hepatic clearance CLh ([1]; NADPH): 11.7 mL/min/kg
half-life at 1 µM ([1]; 1 mg/mL pooled HLMs with NADPH (phase I)): < 30 min
half-life at 1 µM ([1]; 1 mg/mL pooled HLMs with NADPH + UDPGA (phase I + II)): 29.5 min
microsomal CLint at 1 µM ([1]; pH 7.4, HLMs with NADPH + UDPGA): 23.5 µL/min/mg
microsomal CLint at 1 µM ([1]; pH 7.4, HLMs with NADPH): 26.3 µL/min/mg
CLint scaled at 1 µM ([1]; pH 7.4, NADPH + UDPGA): 24.1 mL/min/kg
CLint scaled at 1 µM ([1]; pH 7.4, NADPH): 27 mL/min/kg
